Data set [1] in a line: Fluorescence of coating films made from different hydrophobic polymers (PMMA, PLGA, PLC). It counts as physicochemical. To be noted: PLGA or PLC, FIG. 10A, 10B. As to the method: The coating films based on ICG are prepared as control.
Coating films made from different polymers were also tested.

Data set [2] is described as follows: NIR fluorescence of coated stainless steel wires (fluorescent image system). In kind it is physicochemical. To be noted: PMMA film, dye 1 wt %; coated 1, 2, 3 or 5 times; FIG. 1. The method, then: Polymethylmethacrylate is dissolved at 30 mg/ml in acetonitrile.
At this step the fiducial is ready to use.

Regarding `CCCCCCCCCCCCCCCCCCN1/C(=C/C=C/C=C/C=C/C2=[N+](CCCCCCCCCCCCCCCCCC)c3ccc4ccccc4c3C2(C)C)C(C)(C)c2c1ccc1ccccc21` [Cy7.5-C18-TPB, Dioctadecylcyanine 7.5 tetraphenylborate], the “brightness of coating films, different polymers” value in data set [1] was “better brightness than a coating film based on ICG”. In data set [2], the “NIR fluorescence of coating film on stainless steel wire” value was “visible after the first coating and increases by multiple coating”.
As to `CCCCCCCCCCCCCCCCCCN1/C(=C/C=C2\CCCC(/C=C/C3=[N+](CCCCCCCCCCCCCCCCCC)c4ccc5ccccc5c4C3(C)C)=C2Oc2c(-c3ccccc3)cccc2-c2ccccc2)C(C)(C)c2c1ccc1ccccc21.[I-]` [HA-06-I], in data set [1], the “brightness of coating films, different polymers” value is on record as “better brightness than a coating film based on ICG”.

The record behind these values is patent US12291654B2, “Fluorescent polymeric coating film for medical devices” (UNIVERSITE DE STRASBOURG, priority 2018, dated 2025).
